Measurements: BindingDB's records for doi:10.1021/jm030921v (Uppsala University, 2004)
pKi: −log10 of the molar value. Numbered stars: 1 amine (or outer) side, 2 acyl side, 3 side chain; on linkers, the order of the positions; unused ones are H or OH. Bridge positions count the residues as written; N and C are the ends. Peptide text beside a SMILES is read from it. CH2 = C([*:1])[*:2]

Target: Type-2 angiotensin II receptor (Sus scrofa)
Test: Binding affinity for Angiotensin II receptor type 2 using [125I]- Ang II in pig uterus myometrium

`CC(C)[C@H](NC(=O)[C@H](C)NC(=O)[C@@H](N)CC(=O)O)C(=O)Nc1ccc2c(c1)CN(CC(=O)N[C@@H](Cc1cnc[nH]1)C(=O)N1CCC[C@H]1C(=O)N[C@@H](Cc1ccccc1)C(=O)O)C(=O)[C@H](Cc1ccc(O)cc1)N2` [Angiotensin II analogue] and `N=C(N)NCCC[C@H](NC(=O)[C@@H](N)CC(=O)O)C(=O)Nc1ccc2c(c1)CN(CC(=O)N[C@@H](Cc1cnc[nH]1)C(=O)N1CCC[C@H]1C(=O)N[C@@H](Cc1ccccc1)C(=O)O)C(=O)[C@H](Cc1ccc(O)cc1)N2` [Angiotensin II analogue] cannot be ordered by pKi: under 5.00 for the first, under 5.00 for the second.

Compared with `CC(C)[C@H](NC(=O)[C@H](CCCNC(=N)N)NC(=O)[C@@H](N)CC(=O)O)C(=O)N[C@@H](Cc1ccc(O)cc1)C(=O)Nc1ccc2c(c1)CN(CC(=O)N[C@@H](Cc1ccccc1)C(=O)O)C(=O)[C@H](Cc1cnc[nH]1)N2` [Angiotensin II analogue], `N=C(N)NCCC[C@H](NC(=O)[C@@H](N)CC(=O)O)C(=O)N[C@H]1CSCSC[C@@H](C(=O)N[C@@H](Cc2cnc[nH]2)C(=O)N2CCC[C@H]2C(=O)N[C@@H](Cc2ccccc2)C(=O)O)NC(=O)[C@H](Cc2ccc(O)cc2)NC1=O` [Angiotensin II analogue] (H-DRCYCHPF-OH; linker 3-5 via CH2) is higher in pKi: under 5.00 for the first, 9.21 for the second. The second binds more tightly here.
